Converted amounts (≈) assume the structure as drawn.
What was measured:
Assay type in all cases: functional
Pseudomonas aeruginosa [1] = assay: Potentiation of ceftazidime-induced antibacterial activity against carbapenem-resistant Pseudomonas aeruginosa 88949 clinical isolate assessed as fold reduction in ceftazidime MIC at 8 uM
Pseudomonas aeruginosa [2] = assay: Potentiation of ceftazidime-induced antibacterial activity against carbapenem-resistant Pseudomonas aeruginosa 86052 clinical isolate assessed as fold reduction in ceftazidime MIC at 8 uM
Pseudomonas aeruginosa [3] = assay: Potentiation of ceftazidime-induced antibacterial activity against carbapenem-resistant Pseudomonas aeruginosa 107092 clinical isolate assessed as fold reduction in ceftazidime MIC at 8 uM
Pseudomonas aeruginosa [4] = assay: Potentiation of ceftazidime-induced antibacterial activity against carbapenem-resistant Pseudomonas aeruginosa 108590 clinical isolate assessed as fold reduction in ceftazidime MIC at 8 uM
Pseudomonas aeruginosa [5] = assay: Potentiation of aztreonam-induced antibacterial activity against carbapenem-resistant Pseudomonas aeruginosa 107092 clinical isolate assessed as fold reduction in aztreonam MIC at 8 uM
Pseudomonas aeruginosa [6] = assay: Potentiation of aztreonam-induced antibacterial activity against carbapenem-resistant Pseudomonas aeruginosa 108590 clinical isolate assessed as fold reduction in aztreonam MIC at 8 uM
Pseudomonas aeruginosa [7] = assay: Potentiation of aztreonam-induced antibacterial activity against carbapenem-resistant Pseudomonas aeruginosa 86052 clinical isolate assessed as fold reduction in aztreonam MIC at 8 uM
Pseudomonas aeruginosa [8] = assay: Potentiation of aztreonam-induced antibacterial activity against carbapenem-resistant Pseudomonas aeruginosa 109084 clinical isolate assessed as fold reduction in aztreonam MIC at 8 uM
Pseudomonas aeruginosa [9] = assay: Potentiation of aztreonam-induced antibacterial activity against carbapenem-resistant Pseudomonas aeruginosa 88949 clinical isolate assessed as fold reduction in aztreonam MIC at 8 uM
Pseudomonas aeruginosa [10] = assay: Potentiation of ceftazidime-induced antibacterial activity against carbapenem-resistant Pseudomonas aeruginosa 109084 clinical isolate assessed as fold reduction in ceftazidime MIC at 8 uM
Pseudomonas aeruginosa [11] = assay: Antibacterial activity against Pseudomonas aeruginosa PAO750 harboring mexAB-oprM/mexCD-oprJ/mexEF-oprN/mexJK/mexXY/opmH efflux deficient mutant
Pseudomonas aeruginosa [12] = assay: Antibacterial activity against Pseudomonas aeruginosa PAO200 harboring mexAB-oprM efflux deficient mutant
Pseudomonas aeruginosa [13] = assay: Potentiation of imipenem-induced antibacterial activity against carbapenem-resistant Pseudomonas aeruginosa 88949 clinical isolate assessed as fold reduction in imipenem MIC at 8 uM
Pseudomonas aeruginosa [14] = assay: Potentiation of imipenem-induced antibacterial activity against carbapenem-resistant Pseudomonas aeruginosa 108590 clinical isolate assessed as fold reduction in imipenem MIC at 8 uM
Pseudomonas aeruginosa [15] = assay: Potentiation of imipenem-induced antibacterial activity against carbapenem-resistant Pseudomonas aeruginosa 109084 clinical isolate assessed as fold reduction in imipenem MIC at 8 uM
Pseudomonas aeruginosa [16] = assay: Potentiation of imipenem-induced antibacterial activity against carbapenem-resistant Pseudomonas aeruginosa 86052 clinical isolate assessed as fold reduction in imipenem MIC at 8 uM
Pseudomonas aeruginosa [17] = assay: Potentiation of imipenem-induced antibacterial activity against carbapenem-resistant Pseudomonas aeruginosa 107092 clinical isolate assessed as fold reduction in imipenem MIC at 8 uM
Pseudomonas aeruginosa [18] = assay: Antibacterial activity against wild type Pseudomonas aeruginosa PAO1

NC(=O)[C@@H]1CC[C@@H]2CN1C(=O)N2OS(=O)(=O)O [AVIBACTAM]
fold change (FC) (Pseudomonas aeruginosa [1]): 2 | fold change (FC) (Pseudomonas aeruginosa [2]): 2 | fold change (FC) (Pseudomonas aeruginosa [3]): 2 | fold change (FC) (Pseudomonas aeruginosa [4]): 2 | fold change (FC) (Pseudomonas aeruginosa [5]): 2 | fold change (FC) (Pseudomonas aeruginosa [6]): 2 | fold change (FC) (Pseudomonas aeruginosa [7]): 2 | fold change (FC) (Pseudomonas aeruginosa [8]): 2 | fold change (FC) (Pseudomonas aeruginosa [9]): 2 | fold change (FC) (Pseudomonas aeruginosa [10]): 2

O=C(O)c1cn(C2CC2)c2cc(N3CCNCC3)c(F)cc2c1=O [CIPROFLOXACIN]
MIC (Pseudomonas aeruginosa [11]): 0.0078 µg/mL (≈ 0.0235 µM) | MIC (Pseudomonas aeruginosa [12]): 0.0156 µg/mL (≈ 0.0471 µM)

O.O=C(NC1CCNCC1)[C@@H]1CC[C@@H]2CN1C(=O)N2OS(=O)(=O)O [RELEBACTAM]
fold change (FC) (Pseudomonas aeruginosa [13]): 2 | fold change (FC) (Pseudomonas aeruginosa [14]): 2 | fold change (FC) (Pseudomonas aeruginosa [15]): 2 | fold change (FC) (Pseudomonas aeruginosa [16]): 2 | fold change (FC) (Pseudomonas aeruginosa [17]): 2

NC[C@H]1O[C@H](O[C@H]2[C@H](O)[C@@H](O[C@H]3O[C@H](CO)[C@@H](O)[C@H](N)[C@H]3O)[C@H](N)C[C@@H]2N)[C@H](N)C[C@@H]1O [TOBRAMYCIN]
MIC (Pseudomonas aeruginosa [18]): 1 µg/mL (≈ 2.14 µM) | MIC (Pseudomonas aeruginosa [11]): 1 µg/mL (≈ 2.14 µM) | MIC (Pseudomonas aeruginosa [12]): 1 µg/mL (≈ 2.14 µM)

Reference: ChEMBL document CHEMBL4665836, “Overcoming β-Lactam resistance in Pseudomonas aeruginosa using non-canonical tobramycin-based antibiotic adjuvants” (2020)
